Results taken from ChEMBL document CHEMBL3259724, “Design, syntheses, and characterization of piperazine based chemokine receptor CCR5 antagonists as anti prostate cancer agents” (Bioorg Med Chem Lett, 2014).

Assays:
[1] = Antiproliferative activity against human M12 cells after 72 hrs by WST-1 assay; format: functional, cell-based; settings: M12, 72 h
[2] = Cytotoxicity against mouse NIH/3T3 cells after 48 hrs by neutral red uptake assay; format: cell-based, NIH3T3; settings: read-out: TC50
PC-3 = assay: Antiproliferative activity against human PC3 cells after 72 hrs by WST-1 assay; format: functional, cell-based; settings: PC-3, 72 h
[3] = biological target: C-C chemokine receptor type 5 (Homo sapiens, UniProt P51681); assay: Antagonist activity at CCR5 (unknown origin) expressed in human MOLT4 cells assessed as inhibition of RANTES-stimulated calcium mobilization treated for 15 mins prior to RANTES addition by spectrophotometric analysis; format: functional, cell-based, MOLT-4
Sequence of C-C chemokine receptor type 5 (P51681 whole entry): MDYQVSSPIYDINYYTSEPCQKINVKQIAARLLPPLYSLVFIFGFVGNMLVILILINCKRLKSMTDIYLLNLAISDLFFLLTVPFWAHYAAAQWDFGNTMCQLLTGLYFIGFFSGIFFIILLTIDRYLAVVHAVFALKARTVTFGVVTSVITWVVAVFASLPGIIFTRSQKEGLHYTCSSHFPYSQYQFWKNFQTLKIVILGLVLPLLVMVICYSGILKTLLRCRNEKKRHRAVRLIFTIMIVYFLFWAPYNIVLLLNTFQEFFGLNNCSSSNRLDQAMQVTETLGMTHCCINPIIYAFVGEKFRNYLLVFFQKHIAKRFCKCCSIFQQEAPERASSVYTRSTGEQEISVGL

CCN(CC)c1ccc(CN2CCN(c3ccc(OC(C)C)c(NC(=O)c4cnccn4)c3)CC2)cc1
IC50 [1]: 11.4 µM | CC50 at 48 h [2]: 31.9 µM | IC50 (PC-3): 6.5 µM

CC(C)Oc1ccc(N2CCN(Cc3ccc([N+](=O)[O-])cc3)CC2)cc1NC(=O)c1cnccn1
IC50 [1]: 78.7 µM | CC50 at 48 h [2]: 29.3 µM | IC50 (PC-3): 49.1 µM

CC(C)Oc1ccc(N2CCN(Cc3ccccc3)CC2)cc1NC(=O)c1cnccn1
IC50 [1]: 29.9 µM | CC50 at 48 h [2]: 46.6 µM | IC50 (PC-3): 67 µM

CC(C)Oc1ccc(N2CCN(Cc3ccccc3[N+](=O)[O-])CC2)cc1NC(=O)c1cnccn1
IC50 [1]: 183 µM | CC50 at 48 h [2]: > 50 µM | IC50 (PC-3): 62.9 µM | IC50 [3]: 16.8 µM

CC(C)Oc1ccc(N2CCN(Cc3ccc(Cl)cc3)CC2)cc1NC(=O)c1cnccn1
IC50 [1]: 26.3 µM | CC50 at 48 h [2]: 1.6 µM | IC50 (PC-3): 56.1 µM

CC(C)Oc1ccc(N2CCN(Cc3ccc(Br)cc3)CC2)cc1NC(=O)c1cnccn1
IC50 [1]: 48.8 µM | CC50 at 48 h [2]: > 50 µM | IC50 (PC-3): 31.5 µM

COC(=O)c1ccc(CN2CCN(c3ccc(OC(C)C)c(NC(=O)c4cnccn4)c3)CC2)cc1
IC50 [1]: 73.7 µM | IC50 (PC-3): 91.5 µM

CC(C)Oc1ccc(N2CCN(Cc3ccc(C(=O)O)cc3)CC2)cc1NC(=O)c1cnccn1
IC50 [1]: 129 µM | IC50 (PC-3): 74 µM

CC(C)Oc1ccc(N2CCN(Cc3ccc(S(C)(=O)=O)cc3)CC2)cc1NC(=O)c1cnccn1
IC50 [1]: 141 µM | IC50 (PC-3): > 100 µM

Cc1ccc(CN2CCN(c3ccc(OC(C)C)c(NC(=O)c4cnccn4)c3)CC2)cc1
IC50 [1]: 15.8 µM | IC50 (PC-3): 19.7 µM

CC(C)Oc1ccc(N2CCN(Cc3ccc(N)cc3)CC2)cc1NC(=O)c1cnccn1
IC50 [1]: 19.7 µM | CC50 at 48 h [2]: 10.7 µM | IC50 (PC-3): 20.1 µM

CSc1ccc(CN2CCN(c3ccc(OC(C)C)c(NC(=O)c4cnccn4)c3)CC2)cc1
IC50 [1]: > 100 µM | IC50 (PC-3): 78 µM

CC(=O)Nc1ccc(CN2CCN(c3ccc(OC(C)C)c(NC(=O)c4cnccn4)c3)CC2)cc1
IC50 [1]: 39 µM | CC50 at 48 h [2]: 7.8 µM | IC50 (PC-3): 24.3 µM

CC(C)Oc1ccc(N2CCN(Cc3ccc(N(C)C)cc3)CC2)cc1NC(=O)c1cnccn1
IC50 [1]: 65.9 µM | CC50 at 48 h [2]: > 50 µM | IC50 (PC-3): 71.2 µM

Cc1ccc(-c2ccc3c(c2)C=C(C(=O)Nc2ccc(C[N+](C)(C)C4CCOCC4)cc2)CCC3)cc1
IC50 [1]: 20.4 µM | IC50 (PC-3): 37.9 µM
